Test results published in patent US12544348B2, “Methods for treating APOE4/4-associated disorders” (The Regents of the University of California, priority 2018, dated 2026).

System: hippocampal slices from apoE4-KI mice
Test: Brain slice electrophysiological recordings (LTP, input-output) after in vivo treatment
Settings: 0.2 mg/kg for 8 weeks
Text: Brain slice electrophysiological recordings and data analyses. For long-term potentiation (LTP) recording study, apoE4-KI mice were randomly allocated to vehicle (n=6, age 15.2±0.56 months) and bumetanide (n=3, age 15.1±0.06) treatment groups. ApoE3-KI mice were similarly allocated into vehicle (n=6, age 15.5±0.11) and bumetanide (n-3, age 15.57±0.19) treatment groups. For input/output recording study, apoE4-KI mice were randomly allocated to vehicle (n=3, age 15.1±0.06 months) and bumetanide (n=3, age 15.1±0.06) treatment groups. ApoE3-KI mice were similarly allocated into vehicle (n=7, age 15.3±0.06) and bumetanide (n=3, age 15.57±0.29) treatment groups. […]
Field post-synaptic potentials (fPSPs) were elicited by orthodromic stimulation of Schaffer collaterals by concentric bipolar stimulating electrode (FHC, Inc., USA) connected to a constant voltage isolated stimulator (DS2A-MKII, Digitimer North America) and placed in CA2 stratum radiatum. fPSPs were recorded with a glass borosilicate microelectrode filled with ACSF and placed in CA1 stratum radiatum. Signals were sampled and digitized by MultiClamp 700B amplifier and Digidata 1550B1 acquisition system with pClamp10 software (Molecular Devices, USA), and analyzed using IgorPro6 software (Wavemetrics Inc., USA) running custom macros. fPSP slopes were analyzed as the linear fit slope values between 10% and 90% of fPSP peak. […]

## CCCCNc1cc(C(=O)O)cc(S(N)(=O)=O)c1Oc1ccccc1 [bumetanide, 3-(butylamino)-4-phenoxy-5-sulfamoylbenzoic acid]
Aged (16-month-old) apoE4-KI mice, theta burst stimulation
  long-term potentiation (LTP) in CA1 region of hippocampal slices: completely rescued LTP deficit
Aged apoE4-KI mice
  neuronal hyperexcitability in CA1 region (input-output curve analysis): normalized
